Measurements published in patent US12528801B2 (Givaudan SA, priority 2019, dated 2026).
pEC50: −log10 of the molar value.

Target: T1, hTRPM8 (Homo sapiens, UniProt Q7Z2W7)
T1 construct: expressed in transfected cells
Assay: Assay on TRPM8 modulators: calcium imaging (Fluo-4, Flexstation) in HEK293 cell line stably expressing hTRPM8
Format: cell-based
Conditions: HEK293 cells stably expressing hTRPM8; calcium influx, Fluo-4, Flexstation 3; sigmoidal dose-response fit
Procedure: A HEK293 cell line stably expressing hTRPM8 was generated according to Klein of at, (Chem. Senses 36: […], 2011) and receptor activation was monitored by calcium imaging in a Flexstation. For Ca-imaging assays of TRPM8 channel activation, cells were seeded on day 0 at a density of 12000 cells per well in Dulbecco's modified Eagle medium (DMEM) containing 9% foetal bovine serum in black, clear bottom 96-well plates that had been coated with 0.001% polyethyleneimine (molecular weight=60 000, Acros Organics). On day 2, agonists were evaluated via calcium imaging using Fluo-4. Briefly, growth medium was discarded, and the cells were incubated in the dark for 1 h at 37° C. in 50 μL loading buffer consisting of 2.7 μM Fluo-4 AM (Invitrogen) and […] probenecid (Sigma-Aldrich) in DMEM (without serum). After incubation, the plates were washed five times with 100 μL of assay buffer (in mM: 130 NaCl, 5 KCl, 10 HEPES, 2 CaCl2, and 10 glucose, pH7.4.) and further incubated in the dark at room temperature for 30 min. The cells were then washed five times with 100 μL assay buffer and then calcium influx to serial dilutions of inventive compounds were measured in a Flexstation 3 (Molecular Devices). Receptor activation was initiated following addition of 20 μl of a 10-fold concentrated ligand stock solution, which is also prepared in assay buffer. Fluorescence was continuously monitored for 15 seconds prior to ligand addition and for 105 seconds after ligand addition, for a total of 120 seconds. Maximal receptor activation in relation to solvent control and relative to 31.6 μM menthol is determined. Data from serial dilutions were processed with a KNIME workflow to fit a sigmoidal dose-response curve and to extrapolate […].

T1 sequence (Q7Z2W7 whole entry): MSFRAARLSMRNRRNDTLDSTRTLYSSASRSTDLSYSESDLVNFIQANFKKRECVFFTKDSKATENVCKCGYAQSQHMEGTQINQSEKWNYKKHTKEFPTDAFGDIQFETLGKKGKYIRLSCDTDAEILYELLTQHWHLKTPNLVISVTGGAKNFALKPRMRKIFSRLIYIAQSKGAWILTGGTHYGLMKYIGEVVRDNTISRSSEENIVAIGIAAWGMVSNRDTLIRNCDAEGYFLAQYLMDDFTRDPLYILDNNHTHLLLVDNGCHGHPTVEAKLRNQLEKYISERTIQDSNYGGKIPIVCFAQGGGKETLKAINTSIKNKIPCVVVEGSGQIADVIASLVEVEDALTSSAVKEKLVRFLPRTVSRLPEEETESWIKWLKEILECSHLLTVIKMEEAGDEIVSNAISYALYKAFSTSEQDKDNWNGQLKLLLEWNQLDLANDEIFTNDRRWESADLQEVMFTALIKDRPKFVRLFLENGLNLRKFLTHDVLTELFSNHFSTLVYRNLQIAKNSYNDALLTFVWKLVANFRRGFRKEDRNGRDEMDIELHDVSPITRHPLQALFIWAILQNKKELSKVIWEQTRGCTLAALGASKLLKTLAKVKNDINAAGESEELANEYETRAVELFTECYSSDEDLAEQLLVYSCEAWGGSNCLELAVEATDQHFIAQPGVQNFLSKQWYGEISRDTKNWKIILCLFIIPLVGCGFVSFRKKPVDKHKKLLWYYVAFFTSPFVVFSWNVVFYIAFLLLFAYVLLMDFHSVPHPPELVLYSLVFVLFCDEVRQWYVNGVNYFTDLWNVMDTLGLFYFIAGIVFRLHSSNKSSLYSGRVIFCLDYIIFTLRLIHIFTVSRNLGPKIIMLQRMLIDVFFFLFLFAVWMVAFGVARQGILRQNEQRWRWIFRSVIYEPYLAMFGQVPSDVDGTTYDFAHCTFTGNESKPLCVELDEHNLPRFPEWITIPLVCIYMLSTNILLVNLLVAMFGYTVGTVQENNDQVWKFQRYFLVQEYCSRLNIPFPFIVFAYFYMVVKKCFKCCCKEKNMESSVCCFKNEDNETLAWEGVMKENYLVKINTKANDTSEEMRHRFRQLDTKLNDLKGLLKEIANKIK

Row | Compound | pEC50
1 | CSC(C)C(=O)N1CCCCC1c1nc(-c2occc2C)c[nH]1 (stereo not drawn) [Compound 29, 1-(2-(4-(3-methylfuran-2-yl)-1H-imidazol-2-yl)piperidin-1-yl)-2-(methylthio)propan-1-one] | 6.52 to 7.30
2 | O=C(c1cnns1)N1CCCCC1c1nc(-c2ccccc2)c[nH]1 (stereo not drawn) [Compound 1, (2-(4-phenyl-1H-imidazol-2-y)piperidin-1-yl)(1,2,3-thiadiazol-5-yl)methanone] | 4.46 to 6.00
3 | CSC(C)C(=O)N1CCCCC1c1ncc(-c2cccc(F)c2)[nH]1 (stereo not drawn) [Compound 66, 1-(2-(5-(3-fluorophenyl)-1H-imidazol-2-yl)piperidin-1-yl)-2-(methylthio)propan-1-one] | > 7.30
4 | C/C=C/C(C)C(=O)N1CCCCC1c1ncc(-c2ccc(C)cc2)[nH]1 (stereo not drawn) [Compound 10, (E)-2-methyl-1-(2-(5-(p-tolyl)-1H-imidazol-2-yl)piperidin-1-yl)pent-3-en-1-one] | > 7.30
5 | CSC(C)C(=O)N1CCCCCC1c1ncc(-c2ccc(C)cc2)[nH]1 (stereo not drawn) [Compound 129, 2-(methylthio)-1-(2-(5-(p-tolyl)-1H-imidazol-2-yl)azepan-1-yl)propan-1-one] | > 7.30
6 | CSC(C)C(=O)N1CCCCC1c1nc(-c2ccc3ccsc3c2)c[nH]1 (stereo not drawn) [Compound 46, 1-(2-(4-(benzo[b]thiophen-6-yl)-1H-imidazol-2-yl)piperidin-1-yl)-2-(methylthio)propan-1-one] | > 7.30
7 | C=CC(C)C(=O)N1CCCCC1c1ncc(-c2ccc(F)c(F)c2)[nH]1 (stereo not drawn) [Compound 61, 1-(2-(5-(3,4-difluorophenyl)-1H-imidazol-2-yl)piperidin-1-yl)-2-methylbut-3-en-1-one] | > 7.30
8 | CSC(C)C(=O)N1CCCCC1c1nc(-c2ccc(S(C)(=O)=O)cc2)c[nH]1 (stereo not drawn) [Compound 35] | 4.46 to 6.00
9 | CSC(C)C(=O)N1CCCCC1c1nnc(-c2ccc(C)cc2)[nH]1 (stereo not drawn) [Compound 131, 2-(methylthio)-1-(2-(5-(p-tolyl)-4H-1,2,4-triazol-3-yl)piperidin-1-yl)propan-1-one] | > 7.30
10 | COc1ccc(-c2cnc(C3CCCCN3C(=O)C(C)SC)[nH]2)c(F)c1 (stereo not drawn) [Compound 56, 1-(2-(5-(2-fluoro-4-methoxyphenyl)-1H-imidazol-2-yl)piperidin-1-yl)-2-(methylthio)propan-1-one] | > 7.30
11 | CCc1ccc(-c2cnc(C3CCCCN3C(=O)C(C)SC)[nH]2)cc1 (stereo not drawn) [Compound 78, 1-(2-(5-(4-ethylphenyl)-1H-imidazol-2-yl)piperidin-1-yl)-2-(methylthio)propan-1-one] | > 7.30
12 | CSC(C)C(=O)N1CCCCC1c1nc(-c2ccc(F)cc2)c[nH]1 (stereo not drawn) [Compound 38, 1-(2-(4-(4-fluorophenyl)-1H-imidazol-2-yl)piperidin-1-yl)-2-(methylthio)propan-1-one] | > 7.30
13 | CSC(C)C(=O)N1CCCCC1c1ncc(-c2ccc(Cl)c(F)c2)[nH]1 (stereo not drawn) [Compound 76, 1-(2-(5-(4-chloro-3-fluorophenyl)-1H-imidazol-2-yl)piperidin-1-yl)-2-(methylthio)propan-1-one] | > 7.30
14 | CSC(C)C(=O)N1CCCCC1c1nc(-c2ccccc2F)c[nH]1 (stereo not drawn) [Compound 23, 1-(2-(4-(2-fluorophenyl)-1H-imidazol-2-yl)piperidin-1-yl)-2-(methylthio)propan-1-one] | > 7.30
15 | CSC(C)C(=O)N1CCCCC1c1ncc(-c2ccc(F)c(F)c2)[nH]1 (stereo not drawn) [Compound 60, 1-(2-(5-(3,4-difluorophenyl)-1H-imidazol-2-yl)piperidin-1-yl)-2-(methylthio)propan-1-one] | > 7.30
16 | CSC(C)C(=O)N1CCCCC1c1nc(-c2ccccc2C)c[nH]1 (stereo not drawn) [Compound 112, 2-(methylthio)-1-(2-(4-(o-tolyl)-1H-imidazol-2-yl)piperidin-1-yl)propan-1-one] | 6.52 to 7.30
17 | C=CC=CCC(=O)N1CCCCC1c1nc(-c2ccccc2)c[nH]1 (stereo not drawn) [Compound 50, 1-(2-(4-phenyl-1H-imidazol-2-yl)piperidin-1-yl)hexa-3,5-dien-1-one] | 4.46 to 6.00
18 | CNc1cccc(-c2cnc(C3CCCCN3C(=O)C(C)SC)[nH]2)c1 (stereo not drawn) [Compound 59, 1-(2-(5-(3-(methylamino)phenyl)-1H-imidazol-2-yl)piperidin-1-yl)-2-(methylthio)propan-1-one] | 6.52 to 7.30
19 | CS(=O)(=O)CC(=O)N1CCCCC1c1nc(-c2ccccc2)c[nH]1 (stereo not drawn) [Compound 102, 2-(methylsulfonyl)-1-(2-(4-phenyl-1H-imidazol-2-yl)piperidin-1-yl)ethan-1-one] | 4.46 to 6.00
20 | COCc1cc(-c2cnc(C3CCCCN3C(=O)C(C)SC)[nH]2)cs1 (stereo not drawn) [Compound 83, 1-(2-(5-(5-(methoxymethyl)thiophen-3-yl)-1H-imidazol-2-yl)piperidin-1-yl)-2-(methylthio)propan-1-one] | 6.52 to 7.30
21 | CCCC(=O)N1CCCCC1c1nc(-c2ccccc2)c[nH]1 (stereo not drawn) [Compound 49, 1-(2-(4-phenyl-1H-imidazol-2-yl)piperidin-1-yl)butan-1-one] | 6.00 to 6.52
22 | CSC(C)C(=O)N1CCCCC1c1ncc(-c2ccccc2C(F)(F)F)[nH]1 (stereo not drawn) [Compound 119, 2-(methylthio)-1-(2-(5-(2-(trifluoromethyl)phenyl)-1H-imidazol-2-yl)piperidin-1-yl)propan-1-one] | 6.00 to 6.52
23 | CSC(C)C(=O)N1CCCCC1c1nc(-c2ccc(OC(F)F)c(F)c2)c[nH]1 (stereo not drawn) [Compound 32, 1-(2-(4-(4-(difluoromethoxy)-3-fluorophenyl)-1H-imidazol-2-yl)piperidin-1-yl)-2-(methylthio)propan-1-one] | > 7.30
24 | CSC(C)C(=O)N1CCCCC1c1ncc(-c2cccc(C(F)(F)F)c2)[nH]1 (stereo not drawn) [Compound 122, 2-(methylthio)-1-(2-(5-(3-(trifluoromethyl)phenyl)-1H-imidazol-2-yl)piperidin-1-yl)propan-1-one] | 6.52 to 7.30
25 | CCC(=O)N1CCCCC1c1ncc(-c2ccc(C)cc2)[nH]1 (stereo not drawn) [Compound 86, 1-(2-(5-(p-tolyl)-1H-imidazol-2-yl)piperidin-1-yl)propan-1-one] | 6.52 to 7.30
26 | C/C=C(\C)C(=O)N1CCCCC1c1ncc(-c2ccc(C)cc2)[nH]1 (stereo not drawn) [Compound 9, (E)-2-methyl-1-(2-(5-(p-tolyl)-1H-imidazol-2-yl)piperidin-1-yl)but-2-en-1-one] | > 7.30
27 | CSC(C)C(=O)N1CCCCC1c1nc(-c2cnn(C(F)(F)F)c2)c[nH]1 (stereo not drawn) [Compound 106, 2-(methylthio)-1-(2-(4-(1-(trifluoromethyl)-1H-pyrazol-4-yl)-1H-imidazol-2-yl)piperidin-1-yl)propan-1-one] | 6.52 to 7.30

Next, values leading:

Row | pEC50 | Compound
28 | 6.52 to 7.30 | COC(C)C(=O)N1CCCCC1c1ncc(-c2ccc(C)cc2)[nH]1 (stereo not drawn) [Compound 160, 2-methoxy-1-(2-(5-(p-tolyl)-1H-imidazol-2-yl)piperidin-1-yl)propan-1-one]
29 | > 7.30 | CSC(C)C(=O)N1CCCCC1c1nc(-c2ccc(C)cc2)co1 (stereo not drawn) [Compound 207, 2-(methylthio)-1-(2-(4-(p-tolyl)oxazol-2-yl)piperidin-1-yl)propan-1-one]
30 | 6.00 to 6.52 | O=C(C1CCC1)N1CCCCC1c1ncc(-c2cccc(F)c2)[nH]1 (stereo not drawn) [Compound 185, cyclobutyl(2-(5-(3-fluorophenyl)-1H-imidazol-2-yl)piperdin-1-yl)methanone]
31 | > 7.30 | CCC(C)C(=O)N1CCCCC1c1ncc(-c2ccc(C#N)cc2)[nH]1 (stereo not drawn) [Compound 198]
32 | > 7.30 | CSC(C)C(=O)N1CCCCC1c1ncc(-c2ccc(C=O)cc2)[nH]1 (stereo not drawn) [Compound 182, 4-(2-(1-(2-(methylthio)propanoyl)piperidin-2-yl)-1H-imidazol-5-yl)benzaldehyde]
33 | > 7.30 | CSC(C)C(=O)N1CCCCC1c1ncc(-c2ccc(C#N)cc2F)[nH]1 (stereo not drawn) [Compound 178, 3-fluoro-4-(2-(1-(2-(methylthio)propanoyl)piperidin-2-yl)-1H-imidazol-5-yl)benzonitrile]
34 | > 7.30 | CSC(C)C(=O)N1CCCCC1c1ncc(-c2ccc([N+](=O)[O-])cc2)[nH]1 (stereo not drawn) [Compound 192, 2-(methylthio)-1-(2-(5-(4-nitrophenyl)-1H-imidazol-2-yl)piperidin-1-yl)propan-1-one]
35 | 4.46 to 6.00 | CC(C)=CC(=O)N1CCCCC1c1nc(-c2ccccc2)c[nH]1 (stereo not drawn) [Compound 179, 3-methyl-1-(2-(4-phenyl-1H-imidazol-2-yl)piperidin-1-yl)but-2-en-1-one]
36 | 6.52 to 7.30 | Cc1ccc(-c2cnc(C3CCCCN3C(=O)C(C)S)[nH]2)cc1 (stereo not drawn) [Compound 157, 2-mercapto-1-(2-(5-(p-tolyl)-1H-imidazol-2-yl)piperidin-1-yl)propan-1-one]
37 | 4.46 to 6.00 | COCC(OC)C(=O)N1CCCCC1c1nc(-c2ccccc2)c[nH]1 (stereo not drawn) [Compound 144, 2,3-dimethoxy-1-(2-(4-phenyl-1H-imidazol-2-yl)piperidin-1-yl)propan-1-one]
38 | 4.46 to 6.00 | COC(C)C(=O)N1CCCCC1c1nc(-c2ccccc2)c[nH]1 (stereo not drawn) [Compound 159, 2-methoxy-1-(2-(4-phenyl-1H-imidazol-2-yl)piperidin-1-yl)propan-1-one]
39 | 6.52 to 7.30 | CC(C(=O)N1CCCCC1c1nc(-c2ccccc2)c[nH]1)C(F)(F)F (stereo not drawn) [Compound 175, 3,3,3-trifluoro-2-methyl-1-(2-(4-phenyl-1H-imidazol-2-yl)piperidin-1-yl)propan-1-one]
